Measurements taken from patent publication US20080069776A1, “HISTOFLUORESCENT STAIN FOR ENDOSCOPY” (PENTAX CORPORATION, priority 2006, published 2008).

What was measured:
[1] = tested on: large intestine; test: Fluorescence observation of extracted large intestine stained with the dye, confocal microscope; design: species or system mouse
Procedure: Brilliant Green (manufactured by Sigma-Aldrich Company, B4014-25G) was prepared as a solution using distilled water, and the concentration was adjusted to 1.0 mg/mL.
A mouse (ddY, 13 weeks old, male) was subjected to laparotomy under anesthesia, and the large intestine was extracted. Immediately after extraction, the prepared solution of Brilliant Green was applied onto the large intestine, and fluorescence observation of the specimen by a confocal imaging system using a confocal microscope (manufactured by Leica Corp., TCPSP2) was performed. Here, the stainability, penetrability, and fluorescence properties of Brilliant Green were examined.
Observation was performed for the cross-sections at every 5 μm from the luminal surface layer of the flesh specimen of extracted large intestine, to the depth direction (FIG. 5).

[2] = molecular target: T1, Albumin (from Bovine Serum, Globulin Free) (Bos taurus, UniProt P02769); test: Fluorescence spectrum of liquid mixture of Brilliant Green and albumin; format: physicochemical
T1 construct: Albumin (from Bovine Serum, Globulin Free); purchased Wako Pure Chemical Industries, Ltd. 013-15104; host or cells: bovine serum
Procedure: Brilliant Green (manufactured by Sigma-Aldrich Company, B4014-25G) was prepared as a solution at 0.1 mg/mL using distilled water. Albumin (from Bovine Serum, Globulin Free; Wako Pure Chemical Industries, Ltd., 013-15104) was prepared as a solution at 2.0 mg/mL using physiological saline. Using a 0.1 M phosphate buffer solution (pH 5) and the 2.0 mg/mL albumin solution prepared above, a liquid mixture of 0.01 mg/mL Brilliant Green and albumin was prepared. The maximum absorption wavelength of Brilliant Green of 625 nm was irradiated as the excitation wavelength, and the wavelength of the scattered light detected in the perpendicular direction to the light axis of the excitation light, was measured using a spectrophotometer (manufactured by Shimadzu Corporation, RF-1500). The maximum fluorescence wavelength was 651 nm.
As a comparison to the liquid mixture of Brilliant Green and albumin, the maximum fluorescence wavelength of an albumin solution was measured with respect to an excitation wavelength of 625 nm, which was shown in FIG. 4.

[3] = Absorbance and fluorescence spectra of the dye in distilled water (spectrophotometer / fluorescence spectrophotometer); format: physicochemical; settings: for maximum absorption wavelength / maximum fluorescence wavelength / maximum excitation wavelength: 0.001 mg/mL in distilled water; for maximum absorption wavelength: absorbance measured 200 to 750 nm; for maximum fluorescence wavelength: excited at maximum absorption wavelength; for maximum fluorescence wavelength / maximum excitation wavelength: fluorescence spectrophotometer; for fluorescence in solution state: stain prepared as a solution, red wavelength region
Procedure: Brilliant Green (manufactured by Sigma-Aldrich Company, B4014-25G) was adjusted with distilled water to a concentration of 0.001 mg/mL, and the light absorbance was continuously measured over a wavelength range from 200 to 750 nm using a spectrophotometer (manufactured by Shimadzu Corporation, BioSpec-1600) to determine the wavelength at which the absorption was the maximum. The maximum absorption wavelength of 625 nm thus obtained was irradiated as an excitation wavelength, and the wavelength of the scattered light detected in the perpendicular direction to the light axis of the excitation light was measured using a fluorescence spectrophotometer (manufactured by Shimadzu Corporation, RF-1500), thus to obtain a maximum fluorescence wavelength of 625 nm. The maximum excitation wavelength measured using this fluorescence spectrophotometer was 627 nm.
This implies that the compound is not undergoing the process of excitation by an irradiated light and emission of fluorescence.
As a comparison to Brilliant Green, the wavelength pattern of Rhodamine B, which stains the inner part of cells in the lumen of the large intestine or the like in the same manner as Brilliant Green does, was measured.

T1 sequence (P02769 25-607): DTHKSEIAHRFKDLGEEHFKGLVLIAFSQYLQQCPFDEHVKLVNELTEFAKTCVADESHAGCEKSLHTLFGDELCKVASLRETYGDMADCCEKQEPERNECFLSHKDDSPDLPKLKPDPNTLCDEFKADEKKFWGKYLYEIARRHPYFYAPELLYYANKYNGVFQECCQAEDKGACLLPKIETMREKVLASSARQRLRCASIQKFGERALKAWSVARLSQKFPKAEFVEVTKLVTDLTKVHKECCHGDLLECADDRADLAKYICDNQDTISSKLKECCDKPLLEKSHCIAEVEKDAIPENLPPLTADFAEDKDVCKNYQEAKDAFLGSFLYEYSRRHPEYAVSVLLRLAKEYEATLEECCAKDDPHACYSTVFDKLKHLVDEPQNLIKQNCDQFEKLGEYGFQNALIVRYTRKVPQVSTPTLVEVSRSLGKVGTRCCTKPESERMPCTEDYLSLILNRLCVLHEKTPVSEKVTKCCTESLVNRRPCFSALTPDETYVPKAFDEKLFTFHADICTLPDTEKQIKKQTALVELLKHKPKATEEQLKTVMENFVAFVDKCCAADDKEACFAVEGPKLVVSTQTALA

Row | Structure (SMILES) | depth to which observation could be sufficiently made from the luminal surface layer ([1]; 1.0 mg/mL solution applied onto extracted mouse large intestine, cross-sections every 5 μm) [μm] | stainability of the tissue (cross-sectional images) ([1]; 1.0 mg/mL, sites 10 μm and 15 μm deep from the surface layer) | maximum fluorescence wavelength ([2]; 0.01 mg/mL Brilliant Green with albumin, 0.1 M phosphate buffer pH 5, excitation 625 nm) [nm] | fluorescence when bound to albumin ([2]; light source in the red wavelength region) | maximum absorption wavelength [3] [nm] | maximum fluorescence wavelength [3] [nm] | maximum excitation wavelength [3] [nm] | fluorescence in solution state [3]
1 | CCN(CC)c1ccc(C(=C2C=CC(=[N+](CC)CC)C=C2)c2ccccc2)cc1.O=S(=O)([O-])O [Brilliant Green] | 35 | The cytoplasm is well stained, while the interstitial space is contrastively dark | 651 | emits fluorescence, when bound to albumin | 625 | 625 | 627 | no fluorescence was detected
2 | CCN(Cc1cccc(S(=O)(=O)[O-])c1)c1ccc(C(=C2C=CC(=[N+](CC)Cc3cccc(S(=O)(=O)[O-])c3)C=C2)c2ccccc2S(=O)(=O)[O-])cc1.[Na+].[Na+] [Brilliant Blue FCF, reference compound] |  |  |  |  | 629 | 650 | 619 | 
3 | CCN(CC)c1ccc2c(-c3ccccc3C(=O)O)c3ccc(=[N+](CC)CC)cc-3oc2c1.[Cl-] [Rhodamine B, reference compound] |  |  |  |  |  |  |  | exhibits intense fluorescence even in a solution state
